According to ChEMBL document CHEMBL1201861, “Genomics of Drug Sensitity in Cancer screening data, Wellcome Trust Sanger Institute”:

Experiments:
Assay in all cases: cells
Settings in all cases: Homo sapiens
KYSE-270 = format: functional, cell-based
Description: SANGER: Inhibition of human KYSE-270 cell growth in a cell viability assay.

Daoy = format: functional, cell-based
Description: SANGER: Inhibition of human Daoy cell growth in a cell viability assay.

NCI-H650 = format: functional, cell-based
Description: SANGER: Inhibition of human NCI-H650 cell growth in a cell viability assay.

SK-LU-1 = format: functional, cell-based
Description: SANGER: Inhibition of human SK-LU-1 cell growth in a cell viability assay.

IGR-1 = format: functional, cell-based
Description: SANGER: Inhibition of human IGR-1 cell growth in a cell viability assay.

HuP-T4 = format: functional, cell-based
Description: SANGER: Inhibition of human HuP-T4 cell growth in a cell viability assay.

AN3-CA = format: functional, cell-based
Description: SANGER: Inhibition of human AN3-CA cell growth in a cell viability assay.

SK-MEL3 = format: functional, cell-based, SK-MEL-3
Description: SANGER: Inhibition of human SK-MEL-3 cell growth in a cell viability assay.

MOLT-13 = format: functional, cell-based
Description: SANGER: Inhibition of human MOLT-13 cell growth in a cell viability assay.

A204 = format: functional, cell-based
Description: SANGER: Inhibition of human A204 cell growth in a cell viability assay.

MDA-MB-415 = format: functional, cell-based
CHP-212 = format: functional, cell-based
Description: SANGER: Inhibition of human CHP-212 cell growth in a cell viability assay.

Panc1005 = format: functional, cell-based
Description: SANGER: Inhibition of human PANC-10-05 cell growth in a cell viability assay.

HCC1954 = format: functional, cell-based
Description: SANGER: Inhibition of human HCC1954 cell growth in a cell viability assay.

GMS-10 = format: functional, cell-based
Description: SANGER: Inhibition of human GMS-10 cell growth in a cell viability assay.

CAMA-1 = format: functional, cell-based
Description: SANGER: Inhibition of human CAMA-1 cell growth in a cell viability assay.

MEL-JUSO = format: functional, cell-based
Description: SANGER: Inhibition of human MEL-JUSO cell growth in a cell viability assay.

HCT-15 = format: functional, cell-based
Description: SANGER: Inhibition of human HCT-15 cell growth in a cell viability assay.

CAPAN-1 = format: functional, cell-based
Description: SANGER: Inhibition of human CAPAN-1 cell growth in a cell viability assay.

MIA PaCa-2 = format: functional, cell-based
Description: SANGER: Inhibition of human MIA-PaCa-2 cell growth in a cell viability assay.

SW780 = format: functional, cell-based
Description: SANGER: Inhibition of human SW780 cell growth in a cell viability assay.

CAL-62 = format: functional, cell-based
Description: SANGER: Inhibition of human CAL-62 cell growth in a cell viability assay.

TYK-nu = format: functional, cell-based
Description: SANGER: Inhibition of human TYK-nu cell growth in a cell viability assay.

ABC-1 = format: functional, cell-based
Description: SANGER: Inhibition of human ABC-1 cell growth in a cell viability assay.

HT1197 = format: functional, cell-based, HT-1197
Description: SANGER: Inhibition of human HT-1197 cell growth in a cell viability assay.

C32 = format: functional, cell-based
Description: SANGER: Inhibition of human C32 cell growth in a cell viability assay.

C3A = format: functional, cell-based
Description: SANGER: Inhibition of human C3A cell growth in a cell viability assay.

EGI-1 = format: functional, cell-based
Description: SANGER: Inhibition of human EGI-1 cell growth in a cell viability assay.

HSC-2 = format: functional, cell-based
Description: SANGER: Inhibition of human HSC-2 cell growth in a cell viability assay.

SW-620 = format: functional, cell-based
Description: SANGER: Inhibition of human SW620 cell growth in a cell viability assay.

KYSE-450 = format: functional, cell-based
Description: SANGER: Inhibition of human KYSE-450 cell growth in a cell viability assay.

BXPC-3 = format: functional, cell-based
Description: SANGER: Inhibition of human BxPC-3 cell growth in a cell viability assay.

FaDu = format: functional, cell-based
Description: SANGER: Inhibition of human FADU cell growth in a cell viability assay.

T47D = format: functional, cell-based
Description: SANGER: Inhibition of human T47D cell growth in a cell viability assay.

G-361 = format: functional, cell-based
RCM-1 = format: functional, cell-based
Description: SANGER: Inhibition of human RCM-1 cell growth in a cell viability assay.

UACC-62 = format: functional, cell-based
Description: SANGER: Inhibition of human UACC-62 cell growth in a cell viability assay.

U2OS = format: functional, cell-based, U-2-OS
Description: SANGER: Inhibition of human U-2-OS cell growth in a cell viability assay.

ASPC1 = format: functional, cell-based
Description: SANGER: Inhibition of human AsPC-1 cell growth in a cell viability assay.

NB14 = format: functional, cell-based
Description: SANGER: Inhibition of human NB14 cell growth in a cell viability assay.

HSC-4 = format: functional, cell-based
Description: SANGER: Inhibition of human HSC-4 cell growth in a cell viability assay.

HCC1395 = format: functional, cell-based
Description: SANGER: Inhibition of human HCC1395 cell growth in a cell viability assay.

RPMI-7951 = format: functional, cell-based
Description: SANGER: Inhibition of human RPMI-7951 cell growth in a cell viability assay.

BFTC-909 = format: functional, cell-based
Description: SANGER: Inhibition of human BFTC-909 cell growth in a cell viability assay.

NB17 = format: functional, cell-based
Description: SANGER: Inhibition of human NB17 cell growth in a cell viability assay.

Calu-3 = format: functional, cell-based
Description: SANGER: Inhibition of human Calu-3 cell growth in a cell viability assay.

SK-MEL-28 = format: functional, cell-based
Description: SANGER: Inhibition of human SK-MEL-28 cell growth in a cell viability assay.

MKN-45 = format: functional, cell-based
Description: SANGER: Inhibition of human MKN45 cell growth in a cell viability assay.

A253 cell line = format: functional, cell-based
Description: SANGER: Inhibition of human A253 cell growth in a cell viability assay.

HCC2157 = format: functional, cell-based
Description: SANGER: Inhibition of human HCC2157 cell growth in a cell viability assay.

## Cn1cc(/C=C2\C(=O)Nc3cccnc32)c2ccccc21
KYSE-270
  IC50: > 2000 nM
Daoy
  IC50: > 2000 nM
NCI-H650
  IC50: > 2000 nM
SK-LU-1
  IC50: > 2000 nM
IGR-1
  IC50: > 2000 nM
HuP-T4
  IC50: > 2000 nM
AN3-CA
  IC50: > 2000 nM
SK-MEL3
  IC50: > 2000 nM
MOLT-13
  IC50: > 2000 nM
A204
  IC50: > 2000 nM
MDA-MB-415
  IC50: > 2000 nM
CHP-212
  IC50: > 2000 nM
Panc1005
  IC50: > 2000 nM
HCC1954
  IC50: > 2000 nM
GMS-10
  IC50: > 2000 nM
CAMA-1
  IC50: > 2000 nM
MEL-JUSO
  IC50: > 2000 nM
HCT-15
  IC50: > 2000 nM
CAPAN-1
  IC50: > 2000 nM
MIA PaCa-2
  IC50: > 2000 nM
SW780
  IC50: > 2000 nM
CAL-62
  IC50: > 2000 nM
TYK-nu
  IC50: > 2000 nM
ABC-1
  IC50: > 2000 nM
HT1197
  IC50: > 2000 nM
C32
  IC50: > 2000 nM
C3A
  IC50: > 2000 nM
EGI-1
  IC50: > 2000 nM
HSC-2
  IC50: > 2000 nM
SW-620
  IC50: > 2000 nM
KYSE-450
  IC50: > 2000 nM
BXPC-3
  IC50: > 2000 nM
FaDu
  IC50: > 2000 nM
T47D
  IC50: > 2000 nM
G-361
  IC50: 211 nM
RCM-1
  IC50: > 2000 nM
UACC-62
  IC50: > 2000 nM
U2OS
  IC50: > 2000 nM
ASPC1
  IC50: > 2000 nM
NB14
  IC50: > 2000 nM
HSC-4
  IC50: 1950 nM
HCC1395
  IC50: > 2000 nM
RPMI-7951
  IC50: > 2000 nM
BFTC-909
  IC50: > 2000 nM
NB17
  IC50: > 2000 nM
Calu-3
  IC50: > 2000 nM
SK-MEL-28
  IC50: > 2000 nM
MKN-45
  IC50: > 2000 nM

## CCCS(=O)(=O)Nc1ccc(F)c(C(=O)c2c[nH]c3ncc(Cl)cc23)c1F [PLX-4720]
KYSE-270
  IC50: > 10000 nM
Daoy
  IC50: > 10000 nM
NCI-H650
  IC50: > 10000 nM
SK-LU-1
  IC50: > 10000 nM
IGR-1
  IC50: > 10000 nM
HuP-T4
  IC50: > 10000 nM
AN3-CA
  IC50: > 10000 nM
SK-MEL3
  IC50: 516 nM
MOLT-13
  IC50: > 10000 nM
A253 cell line
  IC50: > 10000 nM
A204
  IC50: > 10000 nM
MDA-MB-415
  IC50: > 10000 nM
CHP-212
  IC50: > 10000 nM
Panc1005
  IC50: > 10000 nM
HCC1954
  IC50: > 10000 nM
GMS-10
  IC50: > 10000 nM
CAMA-1
  IC50: > 10000 nM
MEL-JUSO
  IC50: > 10000 nM
HCT-15
  IC50: > 10000 nM
CAPAN-1
  IC50: > 10000 nM
MIA PaCa-2
  IC50: > 10000 nM
SW780
  IC50: > 10000 nM
CAL-62
  IC50: > 10000 nM
TYK-nu
  IC50: > 10000 nM
ABC-1
  IC50: > 10000 nM
HT1197
  IC50: > 10000 nM
C32
  IC50: 151 nM
C3A
  IC50: > 10000 nM
EGI-1
  IC50: > 10000 nM
HSC-2
  IC50: > 10000 nM
SW-620
  IC50: > 10000 nM
KYSE-450
  IC50: > 10000 nM
BXPC-3
  IC50: > 10000 nM
FaDu
  IC50: > 10000 nM
T47D
  IC50: > 10000 nM
G-361
  IC50: 346 nM
RCM-1
  IC50: > 10000 nM
UACC-62
  IC50: > 10000 nM
U2OS
  IC50: > 10000 nM
ASPC1
  IC50: > 10000 nM
NB14
  IC50: > 10000 nM
HCC2157
  IC50: > 10000 nM
HCC1395
  IC50: > 10000 nM
RPMI-7951
  IC50: 5800 nM
BFTC-909
  IC50: > 10000 nM
NB17
  IC50: > 10000 nM
Calu-3
  IC50: > 10000 nM
SK-MEL-28
  IC50: 1050 nM
MKN-45
  IC50: > 10000 nM

## Cn1c(=O)n(-c2ccc(C(C)(C)C#N)cc2)c2c3cc(-c4cnc5ccccc5c4)ccc3ncc21 [DACTOLISIB]
KYSE-270
  IC50: 131 nM
Daoy
  IC50: 36.7 nM
NCI-H650
  IC50: 94.1 nM
SK-LU-1
  IC50: 26.2 nM
IGR-1
  IC50: 46.1 nM
HuP-T4
  IC50: 127 nM
AN3-CA
  IC50: 5.56 nM
SK-MEL3
  IC50: 148 nM
MOLT-13
  IC50: 113 nM
A253 cell line
  IC50: 82.6 nM
A204
  IC50: 28.5 nM
MDA-MB-415
  IC50: 177 nM
CHP-212
  IC50: 74.9 nM
Panc1005
  IC50: 246 nM
HCC1954
  IC50: 513 nM
GMS-10
  IC50: 174 nM
CAMA-1
  IC50: 9.8 nM
CAPAN-1
  IC50: > 2000 nM
MIA PaCa-2
  IC50: 84.5 nM
SW780
  IC50: 23.1 nM
CAL-62
  IC50: 36.9 nM
TYK-nu
  IC50: 9.94 nM
ABC-1
  IC50: 420 nM
HT1197
  IC50: 238 nM
C32
  IC50: 53.8 nM
C3A
  IC50: > 2000 nM
EGI-1
  IC50: 16.4 nM
HSC-2
  IC50: 95.9 nM
SW-620
  IC50: 50.4 nM
KYSE-450
  IC50: 55.2 nM
BXPC-3
  IC50: 81.5 nM
FaDu
  IC50: 267 nM
T47D
  IC50: 67.9 nM
RCM-1
  IC50: 497 nM
UACC-62
  IC50: 168 nM
U2OS
  IC50: 29.5 nM
ASPC1
  IC50: 30.2 nM
NB14
  IC50: 88.3 nM
HCC2157
  IC50: 128 nM
HCC1395
  IC50: 698 nM
RPMI-7951
  IC50: 19.3 nM
BFTC-909
  IC50: 3.71 nM
NB17
  IC50: 722 nM
Calu-3
  IC50: 72 nM
SK-MEL-28
  IC50: 112 nM

## CC[C@@]1(O)C(=O)OCc2c1cc1n(c2=O)Cc2cc3ccccc3nc2-1 [CAMPTOTHECIN]
KYSE-270
  IC50: 5.22 nM
Daoy
  IC50: 0.481 nM
NCI-H650
  IC50: 55 nM
SK-LU-1
  IC50: 4.71 nM
HuP-T4
  IC50: 0.881 nM
AN3-CA
  IC50: 34 nM
MOLT-13
  IC50: 1.79 nM
A204
  IC50: 4.52 nM
CHP-212
  IC50: 1.03 nM
Panc1005
  IC50: 19.7 nM
GMS-10
  IC50: 7.31 nM
CAMA-1
  IC50: 87.4 nM
MEL-JUSO
  IC50: 35.6 nM
HCT-15
  IC50: > 100 nM
CAPAN-1
  IC50: 15 nM
MIA PaCa-2
  IC50: 2.76 nM
SW780
  IC50: 25.8 nM
CAL-62
  IC50: 0.984 nM
TYK-nu
  IC50: 4.94 nM
ABC-1
  IC50: 3.47 nM
HT1197
  IC50: > 100 nM
C32
  IC50: 13.4 nM
C3A
  IC50: 56.9 nM
EGI-1
  IC50: 25.1 nM
HSC-2
  IC50: 11.7 nM
SW-620
  IC50: 4.08 nM
KYSE-450
  IC50: 23.7 nM
FaDu
  IC50: 0.539 nM
T47D
  IC50: 13.5 nM
G-361
  IC50: > 100 nM
RCM-1
  IC50: 28.7 nM
UACC-62
  IC50: 31 nM
U2OS
  IC50: 13.5 nM
NB14
  IC50: 0.907 nM
HSC-4
  IC50: 0.182 nM
HCC1395
  IC50: > 100 nM
RPMI-7951
  IC50: 4.75 nM
BFTC-909
  IC50: 6.92 nM
NB17
  IC50: 2.18 nM
Calu-3
  IC50: 32.8 nM
SK-MEL-28
  IC50: 17.1 nM
MKN-45
  IC50: 27.5 nM
